# [RMPγPNA-N] = PNA unit with R-MP-gamma backbone modification (N: the base)
# Assays:
# complementary DNA strand = assay: UV-melting / van't Hoff analysis of PNA-DNA hybrid duplexes; assay type: binding; details: PNA-DNA duplex; for −ΔG° / −ΔH° / −ΔTS°: averages of three trials
# Method: (§1) FIGS. 2A-2B illustrate UV-melting profiles of PNA-DNA (FIG. 2A) and PNA-RNA (FIG. 2B) hybrid duplexes at a strand concentration of […] each in 10 mM sodium phosphate buffer at pH 7.4. While both the heating and cooling runs were performed because they both have nearly identical profiles UV-melting for only the heating runs are shown.
# UV-melting experiments were performed to determine the effect of MP on the thermal stability of PNA oligomers following hybridization to DNA or an RNA. FIG. 3A illustrates that the incorporation of a single miniPEG side-chain stabilized a PNA-DNA duplex by 4° C. […] However, increase in thermal stability tapers off to a value of about 2.3° C. per unit for the fully-modified oligomer, that is an oligomer made up of R-MP-γPNA groups only (e.g., PNA5).
# (§2) Further insights related to the contribution of miniPEG to the stability of the PNA-DNA duplex was obtained from van′t Hoff analysis. Data in Table 2 show the thermodynamic parameters associated with hybridization of PNA1 through 5 to a complementary DNA or RNA strand.
# complementary RNA strand = assay: UV-melting / van't Hoff analysis of PNA-RNA hybrid duplexes; assay type: binding
# Method: as §1
# A similar pattern is observed for a R-MP-γPNA-RNA duplex, but the observed increase in thermal stability is lower for a R-MP-γPNA-RNA duplex as compared to a R-MP-γPNA-DNA duplex (FIG. 3B). The enhancement in thermal stability of a R-MP-γPNA-RNA duplex is only 3° C. for the first R-MP-γPNA-monomer that is incorporated into the PNA oligomer and this gain in thermal stability reduces to about 1.2° C. per R-MP-γPNA monomer for an oligomer made entirely R-MP-γPNA (PNA5). In contrast the gain in thermal stability is about 2.3° C./unit for R-MP-γPNA-DNA duplexes.
# as §2
# [1] = test system: immobilized complementary DNA; assay: Surface plasmon resonance (SPR) hybridization kinetics; assay type: binding; details: for association rate constant ka / dissociation rate constant kd: 1:1 binding model; for dissociation rate constant kd: † values approach limits of detection
# Method: FIG. 4 illustrates surface plamon resonance (SPR) sensorgrams (solid black lines) and fits (dotted lines) for hybridization of PNA probes to immobilized complementary DNA. Solutions contained 30 nM PNA. Error bars at t=420 sec illustrate standard deviations for three separate trials.
# Surface plasmon resonance (SPR) analysis is used to study the hybridization kinetics of ^R-MPγPNA-DNA and ^R-MPγPNA-RNA duplexes. Briefly, SPR was performed as follows. According to one embodiment, the PNA probe was immobilized to the chip while the DNA target was captured from solution. In another embodiment, a biotinylated version of the DNA target is immobilized on a streptavidin-conjugated, carboxymethylated dextran chip at a relatively low surface density (ca. 100 response units) of DNA targets to limit mass transport effects on the association kinetics. Solutions containing 10-50 nM PNA oligomers are allowed to flow over the chip for about 420 seconds, at which point the flow is switched to a PNA-free buffer to allow net dissociation of the hybridized PNA.
# [2] = Temperature-dependent CD measurements of PNA oligomers; assay type: physicochemical; details: 80° C.; 5 μM oligomer, 10 mM sodium phosphate buffer pH 7.4
# Method: FIG. 1A illustrates CD spectra of PNA5 and PNA2 (Inset) as a function of temperature. Melting transition (Tm) of PNA2 through 5 as determined by CD, monitored at 260 nm. The oligomer concentration was 5 μM, prepared in 10 mM sodium phosphate buffer at pH 7.4.
# [3] = test system: DNA: 3′-[…]-5, X = A, C, G, T (SEQ ID NO: 11); assay: Sequence mismatch discrimination, thermal stability of PNA-DNA duplexes; assay type: binding
# Method: (§3) CD, NMR, and X-ray data have shown that γPNAs derived from L-amino acids adopt a right-handed helix, and that the helix becomes more rigid as more γ-chiral units are added in the backbone. One would therefore expect a fully-modified PNA5 to hybridize to DNA and RNA targets with greater sequence selectivity than PNA1. To verify this hypothesis, thermal stabilities of PNA5-DNA and PNA5-RNA duplexes containing perfectly-matched (PM) and single-base mismatched (MM) targets were determined and compared to those from an earlier study with PNA1-DNA and PNA1-RNA duplexes. […] The ΔTm ranges from −17 to −21° C. for PNA5-DNA and −16 to −20° C. for PNA5-RNA containing a single-base mismatch (X=C, G, T), as compared to −10 to −14° C. for PNA1-DNA and −11 to −18° C. for PNA1-RNA duplex (Table 4). The level of sequence discrimination is greater for PNA5-DNA than for PNA1-DNA, and similar, if not slightly better, for PNA5-RNA as compared to PNA1-RNA.
# [4] = test system: RNA: 3′-CGUACAXACU-5, X = A, C, G, U (SEQ ID NO: 12); assay: Sequence mismatch discrimination, thermal stability of PNA-RNA duplexes; assay type: binding
# Method: as §3
# [5] = PNA-RNA duplex, 298 K, UV-melting curve fitting
substance,measurement,setting,value
H-GCATGTTTGA-NH2 [PNA2] (PNA; 1 R-MP-gamma unit; C-terminal amide; modified_base (6)..(6) R-MP-gamma-backbone modified nucleotide),Kd,"complementary DNA strand; 298 K, UV melting",0.32 nM
same,−ΔG°,complementary DNA strand; 298 K,54 ± 1 kJ/mol
same,−ΔH°,complementary DNA strand; 298 K,319 ± 18 kJ/mol
same,−ΔTS°,complementary DNA strand; 298 K,263 ± 16 kJ/mol
same,Kd,complementary RNA strand; [5],1.2 pM
same,−ΔG°,complementary RNA strand; [5],68 kJ/mol
same,−ΔH°,complementary RNA strand; [5],333 kJ/mol
same,−ΔTS°,complementary RNA strand; [5],232 kJ/mol
same,association kinetics relative to the unmodified PNA,"[1]; SPR, 30 nM PNA",approximately twice as fast
same,association rate constant ka,[1]; SPR,970000 M⁻¹ s⁻¹
same,dissociation rate constant kd,[1]; SPR,0.00041 s⁻¹
same,Kd,"[1]; SPR, ratio of dissociation and association rate constants, † values uncertain, read-out: equilibrium dissociation constant Kd",0.42 nM
same,CD profile / base-stacking at high temperature,[2],completely denatured
"H-GCATGTTTGA-NH2 [PNA5] (all [RMPγPNA-N], methylation of C not given here; C-terminal amide)",increase in thermal stability per miniPEG unit,complementary DNA strand; UV-melting,about 2.3 °C per unit
same,−ΔG°,complementary DNA strand; 298 K,78 ± 2 kJ/mol
same,−ΔH°,complementary DNA strand; 298 K,372 ± 11 kJ/mol
same,−ΔTS°,complementary DNA strand; 298 K,294 ± 10 kJ/mol
same,gain in thermal stability per R-MP-γPNA monomer,"complementary RNA strand; PNA-RNA duplex, UV-melting",about 1.2 °C per R-MP-γPNA monomer
same,−ΔG°,complementary RNA strand; [5],78 kJ/mol
same,−ΔH°,complementary RNA strand; [5],365 kJ/mol
same,−ΔTS°,complementary RNA strand; [5],287 kJ/mol
same,"differential Tm (ΔTm), RNA versus DNA binding",complementary RNA strand; duplex with RNA compared to duplex with DNA,identical thermal stability
same,association rate constant ka,[1]; SPR,800000 M⁻¹ s⁻¹
same,dissociation rate constant kd,[1]; SPR,0.4 × 10^−4 ^† s^−1
same,SPR-derived Kd relative to Kd determined by UV melting experiments,"[1]; Table 3 versus Table 2, DNA target",1200 fold
same,Tm,[3]; C<>T mismatch,47 °C
same,ΔTm between the perfect match and mismatch,[3]; C<>T mismatch,(−21) ° C.
same,Tm,[3]; G<>T mismatch,48 °C
same,ΔTm between the perfect match and mismatch,[3]; G<>T mismatch,(−20) ° C.
same,Tm,[3]; T(U)<>T mismatch,51 °C
same,ΔTm between the perfect match and mismatch,[3]; T(U)<>T mismatch,(−17) ° C.
same,Tm,[3]; X = A (A-T perfect match),68 °C
same,"ΔTm, single-base mismatch (X=C, G, T)",[3]; range over mismatches,−17 to −21 °C
same,Tm,[4]; C<>T mismatch,48 °C
same,ΔTm between the perfect match and mismatch,[4]; C<>T mismatch,(−20) ° C.
same,Tm,[4]; G<>T mismatch,52 °C
same,ΔTm between the perfect match and mismatch,[4]; G<>T mismatch,(−16) ° C.
same,Tm,[4]; T(U)<>T mismatch,48 °C
same,ΔTm between the perfect match and mismatch,[4]; T(U)<>T mismatch,(−20) ° C.
same,Tm,[4]; X = A (A-T perfect match),68 °C
same,"ΔTm, single-base mismatch (X=C, G, T)",[4]; range over mismatches,−16 to −20 °C
same,CD profile / base-stacking at high temperature,[2],distinct CD profile

# From patent US11279736B2, “Conformationally-preorganized, MiniPEG-containing gamma-peptide nucleic acids” (CARNEGIE MELLON UNIVERSITY, priority 2011, dated 2022)
